Assays:
[1] = test system: Echinochloa crus-galli; experiment: Herbicidal effect test by soil treatment; type: in vivo; details: 1.6 g/a, 3 weeks after treatment
Source text: (§1) Herbicidal Effect Test by Soil Treatment
(§2) Sterilized diluvial soil was placed in a plastic box having a size of length 21 cm, width 13 cm and depth 7 cm, seeds Echinochloa crus-galli, Digitaria adscendes, Setaria viridis, Avena fatua, Black-grass, Abutilon avicennae, Ambrosia elatior, Amaranthus retroflexus, Chenopodium album, Polygonum blumei, Stellaria media, Zea mays (corn), Glycine max (soybean), Oryza sativa (rice), Triticum aestivum (wheat) and Beta vulgaris (beat) were sown interspatially, covered with about 1.5 cm of soil, and then the wettable powder of the present invention prepared according to Formulation Example 1 was diluted with water so as to give a predetermined formulation amount, and the surface of the soil was uniformly treated with the diluted wettable powder by use of a small-sized spray. The herbicidal effect for each plant was investigated 3 weeks after treatment with the herbicide according to the criteria indicated in Test Example 1.

[2] = test system: Setaria viridis; experiment: Herbicidal effect test by soil treatment; type: in vivo; details: 1.6 g/a, 3 weeks after treatment
Source text: as §1, §2

[3] = test system: Avena fatua; experiment: Herbicidal effect test by soil treatment; type: in vivo; details: 1.6 g/a, 3 weeks after treatment
Source text: as §1, §2

[4] = test system: Digitaria adscendes; experiment: Herbicidal effect test by soil treatment; type: in vivo; details: 1.6 g/a, 3 weeks after treatment
Source text: as §1, §2

[5] = test system: Polygonum blumei; experiment: Herbicidal effect test by soil treatment; type: in vivo; details: 1.6 g/a, 3 weeks after treatment
Source text: as §1, §2

[6] = test system: Beta vulgaris (beet); experiment: Herbicidal effect test by soil treatment; type: in vivo; details: 1.6 g/a, 3 weeks after treatment
Source text: as §1, §2

[7] = test system: Ambrosia elatior; experiment: Herbicidal effect test by soil treatment; type: in vivo; details: 1.6 g/a, 3 weeks after treatment
Source text: as §1, §2

[8] = test system: corn (Zea mays); experiment: Herbicidal effect test by soil treatment; type: in vivo; details: 1.6 g/a, 3 weeks after treatment
Source text: as §1, §2

[9] = test system: soybean (Glycine max); experiment: Herbicidal effect test by soil treatment; type: in vivo; details: 1.6 g/a, 3 weeks after treatment
Source text: as §1, §2

[10] = test system: Triticum aestivum (wheat); experiment: Herbicidal effect test by soil treatment; type: in vivo; details: 1.6 g/a, 3 weeks after treatment
Source text: as §1, §2

[11] = test system: Amaranthus retroflexus; experiment: Herbicidal effect test by soil treatment; type: in vivo; details: 1.6 g/a, 3 weeks after treatment
Source text: as §1, §2

[12] = test system: Black-grass; experiment: Herbicidal effect test by soil treatment; type: in vivo; details: 1.6 g/a, 3 weeks after treatment
Source text: as §1, §2

[13] = test system: Chenopodium album; experiment: Herbicidal effect test by soil treatment; type: in vivo; details: 1.6 g/a, 3 weeks after treatment
Source text: as §1, §2

[14] = test system: Stellaria media; experiment: Herbicidal effect test by soil treatment; type: in vivo; details: 1.6 g/a, 3 weeks after treatment
Source text: as §1, §2

[15] = test system: Abutilon avicennae; experiment: Herbicidal effect test by soil treatment; type: in vivo; details: 1.6 g/a, 3 weeks after treatment
Source text: as §1, §2

[16] = test system: Monochoria vaginalis; experiment: Herbicidal effect test in submerged condition by treatment during weed-growth stage (1); type: in vivo; details: 0.64 g/a, treated at 1st to 2nd leaf stage, 3 weeks after treatment
Procedure: (§3) Herbicidal Effect Test in Submerged Condition by Treatment During Weed-Growth Stage (1) After alluvial soil was placed in a styrol cup of 1/30000 are, water was poured therein and mixed, and adjusted to a submerged condition of water depth 4 cm. After seeds of Echinochloa crus-galli, Scirpus juncoides and Monochoria vaginalis were sown in the cup, the plants were grown by putting the cup in a green house at 25 to 30° C. When Echinochloa crus-galli, Scirpus juncoides and Monochoria vaginalis reached 1st to 2nd leaf stage, the wettable powder of the present invention prepared according to Formulation Example 1 was diluted with water so as to give a predetermined formulation amount, and the surface of the water was treated with the diluted wettable powder. The herbicidal effect for each plant was investigated 3 weeks after treatment with the herbicide according to the criteria indicated in Test Example 1.

[17] = test system: Echinochloa crus-galli; experiment: as above; type: in vivo; details: 0.64 g/a, treated at 1st to 2nd leaf stage, 3 weeks after treatment
Procedure: as §3

[18] = test system: Scirpus juncoides; experiment: as above; type: in vivo; details: 0.64 g/a, treated at 1st to 2nd leaf stage, 3 weeks after treatment
Procedure: as §3

[19] = test system: direct sown rice; experiment: Herbicidal effect test by foliage treatment; type: in vivo, Oryza sativa; details: 1.6 g/a; foliage treatment after growth of 14 days; 3 weeks after treatment
Source text: (§4) Herbicidal Effect Test by Foliage Treatment
(§5) Sterilized diluvial soil was placed in a plastic box having a size of length 21 cm, width 13 cm and depth 7 cm, seeds of Echinochloa crus-galli, Digitaria adscendes, Setaria viridis, Avena fatua, Black-grass, Abutilon avicennae, Ambrosia elatior, Amaranthus retroflexus, Chenopodium album, Polygonum blumei, Stellaria media, Zea mays, Glycine max, Oryza sativa, Triticum aestivum and Beta vulgaris were sown interspatially, covered with about 1.5 cm of soil, and then the plants were grown by putting the box in a green house at 25 to 30° C. After growth of 14 days, the wettable powder of the present invention prepared according to Formulation Example 1 was diluted with water so as to give a predetermined formulation amount, and the foliage part was uniformly treated with the diluted wettable powder by use of a small-sized spray. The herbicidal effect for each plant was investigated 3 weeks after treatment with the herbicide according to the criteria indicated in Test Example 1.

[20] = test system: Echinochloa crus-galli; experiment: Herbicidal effect test by foliage treatment; type: in vivo; details: 1.6 g/a; foliage treatment after growth of 14 days; 3 weeks after treatment
Source text: as §4, §5

[21] = test system: Setaria viridis; experiment: Herbicidal effect test by foliage treatment; type: in vivo; details: 1.6 g/a; foliage treatment after growth of 14 days; 3 weeks after treatment
Source text: as §4, §5

[22] = test system: Avena fatua; experiment: Herbicidal effect test by foliage treatment; type: in vivo; details: 1.6 g/a; foliage treatment after growth of 14 days; 3 weeks after treatment
Source text: as §4, §5

[23] = test system: Digitaria adscendes; experiment: Herbicidal effect test by foliage treatment; type: in vivo; details: 1.6 g/a; foliage treatment after growth of 14 days; 3 weeks after treatment
Source text: as §4, §5

[24] = test system: Polygonum blumei; experiment: Herbicidal effect test by foliage treatment; type: in vivo; details: 1.6 g/a; foliage treatment after growth of 14 days; 3 weeks after treatment
Source text: as §4, §5

[25] = test system: Beta vulgaris (beet); experiment: Herbicidal effect test by foliage treatment; type: in vivo; details: 1.6 g/a; foliage treatment after growth of 14 days; 3 weeks after treatment
Source text: as §4, §5

[26] = test system: Ambrosia elatior; experiment: Herbicidal effect test by foliage treatment; type: in vivo; details: 1.6 g/a; foliage treatment after growth of 14 days; 3 weeks after treatment
Source text: as §4, §5

[27] = test system: corn (Zea mays); experiment: Herbicidal effect test by foliage treatment; type: in vivo; details: 1.6 g/a; foliage treatment after growth of 14 days; 3 weeks after treatment
Source text: as §4, §5

[28] = test system: soybean (Glycine max); experiment: Herbicidal effect test by foliage treatment; type: in vivo; details: 1.6 g/a; foliage treatment after growth of 14 days; 3 weeks after treatment
Source text: as §4, §5

[29] = test system: Triticum aestivum (wheat); experiment: Herbicidal effect test by foliage treatment; type: in vivo; details: 1.6 g/a; foliage treatment after growth of 14 days; 3 weeks after treatment
Source text: as §4, §5

[30] = test system: Amaranthus retroflexus; experiment: Herbicidal effect test by foliage treatment; type: in vivo; details: 1.6 g/a; foliage treatment after growth of 14 days; 3 weeks after treatment
Source text: as §4, §5

[31] = test system: Chenopodium album; experiment: Herbicidal effect test by foliage treatment; type: in vivo; details: 1.6 g/a; foliage treatment after growth of 14 days; 3 weeks after treatment
Source text: as §4, §5

[32] = test system: Stellaria media; experiment: Herbicidal effect test by foliage treatment; type: in vivo; details: 1.6 g/a; foliage treatment after growth of 14 days; 3 weeks after treatment
Source text: as §4, §5

[33] = test system: Abutilon avicennae; experiment: Herbicidal effect test by foliage treatment; type: in vivo; details: 1.6 g/a; foliage treatment after growth of 14 days; 3 weeks after treatment
Source text: as §4, §5

[34] = test system: Monochoria vaginalis; experiment: Herbicidal effect test in submerged condition by treatment before weed-generation (1); type: in vivo; details: 0.64 g/a, water surface treated on day of sowing, 3 weeks after treatment
Source text: (§6) Herbicidal Effect Test in Submerged Condition by Treatment Before Weed-Generation (1)
(§7) After alluvial soil was placed in a styrol cup of 1/30000 are, water was poured therein and mixed, and adjusted to a submerged condition of water depth 4 cm. After seeds of Echinochloa crus-galli, Scirpus juncoides and Monochoria vaginalis were sown in the cup, rice seedlings at 2.5th leaf stage were transplanted. On the day when the seeds were sown, the wettable powder of the present invention prepared according to Formulation Example 1 was diluted with water so as to give a predetermined formulation amount, and the surface of the water was treated with the diluted wettable powder. The plants were grown by putting the cup in a green house at 25 to 30° C., and investigated on herbicidal effect against each weed 3 weeks after treatment with the herbicide according to the following criteria.
(§8) 5 Herbicidal rate 90% or more (almost complete death)
(§9) 4 Herbicidal rate 70% or more and less than 90%
(§10) 3 Herbicidal rate 40% or more and less than 70%
(§11) 2 Herbicidal rate 20% or more and less than 40%
(§12) 1 Herbicidal rate 5% or more and less than 20%
(§13) 0 Herbicidal rate 5% or less (little effect)

[35] = test system: Echinochloa crus-galli; experiment: as above; type: in vivo; details: 0.64 g/a, water surface treated on day of sowing, 3 weeks after treatment
Source text: as §6, §7, §8, §9, §10, §11, §12, §13

[36] = test system: Scirpus juncoides; experiment: as above; type: in vivo; details: 0.64 g/a, water surface treated on day of sowing, 3 weeks after treatment
Source text: as §6, §7, §8, §9, §10, §11, §12, §13

[37] = test system: direct sown rice; experiment: Herbicidal effect test by soil treatment; type: in vivo, Oryza sativa; details: 1.6 g/a, 3 weeks after treatment
Source text: as §1, §2

Structure (SMILES): COc1cc(OC)nc(NC(=O)NS(=O)(=O)c2c(C3=NOCC(C)(C)O3)c(Cl)nn2C)n1 [Compound 3, N-((4,6-dimethoxypyrimidin-2-yl)aminocarbonyl)-3-chloro-4-(5,5-dimethyl-5H,6H-1,4,2-dioxadin-3-yl)-1-methylpyrazole-5-sulfonamide]
- herbicidal effect, A: Echinochloa crus-galli [1]: 2 (Herbicidal rate 20% or more and less than 40%)
- herbicidal effect, E: Setaria viridis [2]: 0 (Herbicidal rate 5% or less (little effect))
- herbicidal effect, F: Avena fatua [3]: 0 (Herbicidal rate 5% or less (little effect))
- herbicidal effect, D: Digitaria adscendes [4]: 2 (Herbicidal rate 20% or more and less than 40%)
- herbicidal effect, L: Polygonum blumei [5]: 5 (Herbicidal rate 90% or more (almost complete death))
- herbicidal effect, f: Beta vulgaris (beet) [6]: 4 (Herbicidal rate 70% or more and less than 90%)
- herbicidal effect, I: Ambrosia elatior [7]: 5 (Herbicidal rate 90% or more (almost complete death))
- herbicidal effect, b: corn (Zea mays) [8]: 3 (Herbicidal rate 40% or more and less than 70%)
- herbicidal effect, c: soybean (Glycine max) [9]: 1 (Herbicidal rate 5% or more and less than 20%)
- herbicidal effect, e: Triticum aestivum (wheat) [10]: 0 (Herbicidal rate 5% or less (little effect))
- herbicidal effect, J: Amaranthus retroflexus [11]: 4 (Herbicidal rate 70% or more and less than 90%)
- herbicidal effect, G: Black-grass [12]: 3 (Herbicidal rate 40% or more and less than 70%)
- herbicidal effect, K: Chenopodium album [13]: 3 (Herbicidal rate 40% or more and less than 70%)
- herbicidal effect, M: Stellaria media [14]: 5 (Herbicidal rate 90% or more (almost complete death))
- herbicidal effect, H: Abutilon avicennae [15]: 5 (Herbicidal rate 90% or more (almost complete death))
- herbicidal effect, C: Monochoria vaginalis [16]: 5 (Herbicidal rate 90% or more (almost complete death))
- herbicidal effect, A: Echinochloa crus-galli [17]: 5 (Herbicidal rate 90% or more (almost complete death))
- herbicidal effect, B: Scirpus juncoides [18]: 5 (Herbicidal rate 90% or more (almost complete death))
- herbicidal effect, d: direct sown rice [19]: 0 (Herbicidal rate 5% or less (little effect))
- herbicidal effect, A: Echinochloa crus-galli [20]: 4 (Herbicidal rate 70% or more and less than 90%)
- herbicidal effect, E: Setaria viridis [21]: 2 (Herbicidal rate 20% or more and less than 40%)
- herbicidal effect, F: Avena fatua [22]: 0 (Herbicidal rate 5% or less (little effect))
- herbicidal effect, D: Digitaria adscendes [23]: 3 (Herbicidal rate 40% or more and less than 70%)
- herbicidal effect, L: Polygonum blumei [24]: 3 (Herbicidal rate 40% or more and less than 70%)
- herbicidal effect, f: Beta vulgaris (beet) [25]: 3 (Herbicidal rate 40% or more and less than 70%)
- herbicidal effect, I: Ambrosia elatior [26]: 5 (Herbicidal rate 90% or more (almost complete death))
- herbicidal effect, b: corn (Zea mays) [27]: 4 (Herbicidal rate 70% or more and less than 90%)
- herbicidal effect, c: soybean (Glycine max) [28]: 5 (Herbicidal rate 90% or more (almost complete death))
- herbicidal effect, e: Triticum aestivum (wheat) [29]: 0 (Herbicidal rate 5% or less (little effect))
- herbicidal effect, J: Amaranthus retroflexus [30]: 0 (Herbicidal rate 5% or less (little effect))
- herbicidal effect, K: Chenopodium album [31]: 2 (Herbicidal rate 20% or more and less than 40%)
- herbicidal effect, M: Stellaria media [32]: 5 (Herbicidal rate 90% or more (almost complete death))
- herbicidal effect, H: Abutilon avicennae [33]: 5 (Herbicidal rate 90% or more (almost complete death))
- herbicidal effect, C: Monochoria vaginalis [34]: 5 (Herbicidal rate 90% or more (almost complete death))
- herbicidal effect, A: Echinochloa crus-galli [35]: 5 (Herbicidal rate 90% or more (almost complete death))
- herbicidal effect, B: Scirpus juncoides [36]: 5 (Herbicidal rate 90% or more (almost complete death))
- herbicidal effect, d: direct sown rice [37]: 0 (Herbicidal rate 5% or less (little effect))
